Measurements published in patent US20130273027A1, “MUTANT PROTEASES AND METHODS OF USE THEREOF” (Progenra, Inc., priority 2012, published 2013).

Experiments:
[1] = target: T1, USP14 mutant BL2-DNHG (Homo sapiens, UniProt P54578, DEL429-429/S430D/S431N/S432H/S433G); assay: Screening assay with USP14 mutant BL2-DNHG, ubiquitin-rhodamine 110 cleavage; format: biochemical; conditions: 1.275 μM mutant USP14 preincubated 30 minutes; Ub-Rh110; normalized to DMSO (0%) and 10 mM NEM (100%); FIG. 8
T1 construct: a full-length cDNA clone encoding full-length USP14 isoform a; 6xHis (N); yeast SUMO (S. cerevisiae Smt3) (N); made in house; host or cells: E. coli (Rosetta 2 (DE3) pLysS stated for the pE-SUMOpro-USP14 construct)
T1 sequence (P54578 with tags, fused parts or gaps DEL429-429/S430D/S431N/S432H/S433G): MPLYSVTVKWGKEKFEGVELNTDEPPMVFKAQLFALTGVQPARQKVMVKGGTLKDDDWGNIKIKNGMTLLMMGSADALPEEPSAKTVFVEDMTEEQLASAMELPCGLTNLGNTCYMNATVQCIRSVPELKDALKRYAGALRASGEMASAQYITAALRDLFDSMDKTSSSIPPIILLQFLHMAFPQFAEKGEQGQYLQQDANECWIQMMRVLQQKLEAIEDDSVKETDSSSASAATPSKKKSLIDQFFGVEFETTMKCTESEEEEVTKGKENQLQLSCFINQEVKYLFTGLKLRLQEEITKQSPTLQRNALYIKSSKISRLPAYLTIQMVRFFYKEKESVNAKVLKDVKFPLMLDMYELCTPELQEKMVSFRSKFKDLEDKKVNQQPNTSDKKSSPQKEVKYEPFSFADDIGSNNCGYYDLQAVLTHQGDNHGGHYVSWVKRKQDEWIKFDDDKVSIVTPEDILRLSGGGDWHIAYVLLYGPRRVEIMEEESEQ
Protocol: (§1) Another screening assay was performed with the USP14 mutant BL2-DNHG. Test compounds were diluted in DMSO to the appropriate concentration before dispensing 2 μl of each compound into a black walled 96 well plate. The compounds were preincubated with 80 μl of reaction buffer containing 1.275 μM mutant USP14 for 30 minutes before adding 20 μl of 510 nM ubiquitin-rhodamine 110 in reaction buffer. The plates were incubated at room temperature before reading on a fluorimeter equipped with excitation and emission filters of 485 and 528 nm respectively and a 510 nm dichroic mirror within the linear range of the assay.

[2] = target: T2, USP14 mutant BL1-USP21 (Homo sapiens, UniProt P54578, DEL335-341/INS333SRGSI); assay: Screening assay with USP14 mutant BL1-USP21, ubiquitin-rhodamine 110 cleavage; format: biochemical; conditions: 63.75 nM mutant USP14 preincubated 30 minutes; Ub-Rh110; normalized to DMSO (0%) and 10 mM NEM (100%); FIG. 7
T2 construct: a full-length cDNA clone encoding full-length USP14 isoform a; made in house; host or cells: E. coli Rosetta 2 (DE3) pLysS
T2 sequence (P54578 with tags, fused parts or gaps INS333SRGSI/DEL335-341): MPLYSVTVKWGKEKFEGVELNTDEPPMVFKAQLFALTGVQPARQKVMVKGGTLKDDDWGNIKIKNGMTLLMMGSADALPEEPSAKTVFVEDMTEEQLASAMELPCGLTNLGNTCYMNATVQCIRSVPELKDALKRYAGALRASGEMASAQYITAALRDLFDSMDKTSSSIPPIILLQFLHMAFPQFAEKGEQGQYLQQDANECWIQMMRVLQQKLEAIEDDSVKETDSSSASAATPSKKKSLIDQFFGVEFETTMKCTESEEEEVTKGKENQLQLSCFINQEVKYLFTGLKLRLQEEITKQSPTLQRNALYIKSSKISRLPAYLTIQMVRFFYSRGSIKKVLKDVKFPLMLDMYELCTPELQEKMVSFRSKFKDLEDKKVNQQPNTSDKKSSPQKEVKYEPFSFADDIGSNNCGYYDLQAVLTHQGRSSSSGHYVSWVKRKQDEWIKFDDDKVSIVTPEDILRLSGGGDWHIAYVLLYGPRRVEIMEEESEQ
Protocol: as §1, with “Test” for “Another screening assay was performed with the USP14 mutant BL2-DNHG. Test”, “containing 63.75 nM” for “containing 1.275 μM”, “[…]” for “528 nm”, “assay. […] FIG. 7 provides a graph of the results.” for “assay.”

Row | Structure (SMILES) | inhibition of USP14 mutant (BL2-DNHG) [1] | inhibition of USP14 mutant (BL1-USP21) [2]
1 | CC(=O)c1cc([N+](=O)[O-])c(Sc2ccc(F)cc2F)s1 [P22077] | do not inhibit | do not inhibit
2 | N#CSc1cc(SC#N)c(N)nc1N [PR-619] | inhibit | inhibit
